Experiments:
Assay in all cases: NCI one-dose SRB anti-proliferative screen
Format in all cases: cell-based
A498 = conditions: Homo sapiens; A498, Renal cancer; NCI one dose; read-out: Cell growth inhibition %
Procedure, shortened: (§1)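 Read-out: sulforhodamine B protein stain measured colorimetrically after exposure of the cells to test compound at 10 µM. This line formed one member of a 60-line panel spanning lung, leukaemia, melanoma, colon, renal, CNS, prostate, breast and ovarian origins.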

SK-MEL-28 = conditions: Homo sapiens; SK-MEL-28, Melanoma; NCI one dose; read-out: Cell growth inhibition %
Procedure, shortened: as §1

HS 578T = conditions: Homo sapiens; HS 578T, Breast cancer; NCI one dose; read-out: Cell growth inhibition %
Procedure, shortened: as §1

KM12 = conditions: Homo sapiens; KM12, Colon cancer; NCI one dose; read-out: Cell growth inhibition %
Procedure, shortened: as §1

DU-145 = conditions: Homo sapiens; DU-145, Prostate Cancer; NCI one dose; read-out: Cell growth inhibition %
Procedure, shortened: as §1

NCI-H460 = conditions: Homo sapiens; NCI-H460, Non-Small Cell Lung Cancer; NCI one dose; read-out: Cell growth inhibition %
Procedure, shortened: as §1

OVCAR-5 = conditions: Homo sapiens; OVCAR-5, Ovarian Cancer; NCI one dose; read-out: Cell growth inhibition %
Procedure, shortened: as §1

MDA-MB-231/ATCC = conditions: Homo sapiens; MDA-MB-231/ATCC, Breast cancer; NCI one dose; read-out: Cell growth inhibition %
Procedure, shortened: as §1

OVCAR-3 = conditions: Homo sapiens; OVCAR-3, Ovarian Cancer; NCI one dose; read-out: Cell growth inhibition %
Procedure, shortened: as §1

SF-539 = conditions: Homo sapiens; SF-539, CNS Cancer; NCI one dose; read-out: Cell growth inhibition %
Procedure, shortened: as §1

TK-10 = conditions: Homo sapiens; TK-10, Renal cancer; NCI one dose; read-out: Cell growth inhibition %
Procedure, shortened: as §1

PC-3 = conditions: Homo sapiens; PC-3, Prostate Cancer; NCI one dose; read-out: Cell growth inhibition %
Procedure, shortened: as §1

RPMI-8226 = conditions: Homo sapiens; RPMI-8226, Leukemia; NCI one dose; read-out: Cell growth inhibition %
Procedure, shortened: as §1

LOX IMVI = conditions: Homo sapiens; for inhibition at 10 µM: Melanoma, NCI one dose, read-out: Cell growth inhibition %
Procedure, shortened: as §1

HOP-92 = conditions: Homo sapiens; HOP-92, Non-Small Cell Lung Cancer; NCI one dose; read-out: Cell growth inhibition %
Procedure, shortened: as §1

ACHN = conditions: Homo sapiens; ACHN, Renal cancer; NCI one dose; read-out: Cell growth inhibition %
Procedure, shortened: as §1

MDA-MB-468 = conditions: Homo sapiens; MDA-MB-468, Breast cancer; NCI one dose; read-out: Cell growth inhibition %
Procedure, shortened: as §1

IGROV1 = conditions: Homo sapiens, IGROV-1; IGROV1, Ovarian Cancer; NCI one dose; read-out: Cell growth inhibition %
Procedure, shortened: as §1

NCI/ADR-RES = conditions: Homo sapiens; NCI/ADR-RES, Ovarian Cancer; NCI one dose; read-out: Cell growth inhibition %
Procedure, shortened: as §1

786-0 = conditions: Homo sapiens; 786-0, Renal cancer; NCI one dose; read-out: Cell growth inhibition %
Procedure, shortened: as §1

SK-MEL-2 = conditions: Homo sapiens; SK-MEL-2, Melanoma; NCI one dose; read-out: Cell growth inhibition %
Procedure, shortened: as §1

UO-31 = conditions: Homo sapiens; UO-31, Renal cancer; NCI one dose; read-out: Cell growth inhibition %
Procedure, shortened: as §1

HL-60(TB) = conditions: Homo sapiens; HL-60(TB), Leukemia; NCI one dose; read-out: Cell growth inhibition %
Procedure, shortened: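 Activity reflects a single-point exposure at 10 µM, with cell mass determined by a sulforhodamine B dye assay.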

HT29 = conditions: Homo sapiens, HT-29; HT29, Colon cancer; NCI one dose; read-out: Cell growth inhibition %
Procedure, shortened: as §1

MCF7 = conditions: Homo sapiens; MCF7, Breast cancer; NCI one dose; read-out: Cell growth inhibition %
Procedure, shortened: as §1

BT-549 = conditions: Homo sapiens; BT-549, Breast cancer; NCI one dose; read-out: Cell growth inhibition %
Procedure, shortened: as §1

MDA-MB-435 = conditions: Homo sapiens; MDA-MB-435, Melanoma; NCI one dose; read-out: Cell growth inhibition %
Procedure, shortened: as §1

SF-268 = conditions: Homo sapiens; SF-268, CNS Cancer; NCI one dose; read-out: Cell growth inhibition %
Procedure, shortened: as §1

CAKI-1 = conditions: Homo sapiens; CAKI-1, Renal cancer; NCI one dose; read-out: Cell growth inhibition %
Procedure, shortened: as §1

OVCAR-8 = conditions: Homo sapiens; OVCAR-8, Ovarian Cancer; NCI one dose; read-out: Cell growth inhibition %
Procedure, shortened: as §1

SW-620 = conditions: Homo sapiens; SW-620, Colon cancer; NCI one dose; read-out: Cell growth inhibition %
Procedure, shortened: as §1

SR = conditions: Homo sapiens; SR, Leukemia; NCI one dose; read-out: Cell growth inhibition %
Procedure, shortened: as §1

| Structure (SMILES) | inhibition at 10 µM (A498) [%] | inhibition at 10 µM (SK-MEL-28) [%] | inhibition at 10 µM (HS 578T) [%] | inhibition at 10 µM (KM12) [%] | inhibition at 10 µM (DU-145) [%] | inhibition at 10 µM (NCI-H460) [%] | inhibition at 10 µM (OVCAR-5) [%] | inhibition at 10 µM (MDA-MB-231/ATCC) [%] | inhibition at 10 µM (OVCAR-3) [%] | inhibition at 10 µM (SF-539) [%] | inhibition at 10 µM (TK-10) [%] | inhibition at 10 µM (PC-3) [%] | inhibition at 10 µM (RPMI-8226) [%] | inhibition at 10 µM (LOX IMVI) [%] | inhibition at 10 µM (HOP-92) [%] | inhibition at 10 µM (ACHN) [%] | inhibition at 10 µM (MDA-MB-468) [%] | inhibition at 10 µM (IGROV1) [%] | inhibition at 10 µM (NCI/ADR-RES) [%] | inhibition at 10 µM (786-0) [%] | further results |
| --- | --- | --- | --- | --- | --- | --- | --- | --- | --- | --- | --- | --- | --- | --- | --- | --- | --- | --- | --- | --- | --- |
| COc1ccc(/C=C/C(=O)c2ccc(NC(=O)CSc3nnc(-c4ccc5[nH]c(-c6ccccc6)nc5c4)o3)cc2)cc1OC [Compound 7d, 2-{5-[2-Phenyl-1 H-benzo[d]imidazol-5-yl]-1,3,4-oxadiazol-2-ylthio}-N-{4-[(E)-3-(3,4-dimethoxyphenyl)acryloyl]phenyl}acetamide] | 14.3 | 0 | 0 | 0 | 0 | 0 | 0 | 0 | 2.49 | 0.34 | 0 | 0 | 14.7 | 13.5 | 0 | 0 | 0 | 0 | 0 | 9.58 | inhibition at 10 µM (SK-MEL-2): 0%; inhibition at 10 µM (UO-31): 11%; inhibition at 10 µM (HL-60(TB)): 0%; inhibition at 10 µM (HT29): 0%; inhibition at 10 µM (MCF7): 27.3%; inhibition at 10 µM (BT-549): 10.4%; inhibition at 10 µM (MDA-MB-435): 0%; inhibition at 10 µM (SF-268): 0%; inhibition at 10 µM (CAKI-1): 0%; inhibition at 10 µM (OVCAR-8): 0%; inhibition at 10 µM (SW-620): 0%; inhibition at 10 µM (SR): 4.34% |
| COc1cc(/C=C/C(=O)c2ccc(NC(=O)CSc3nnc(-c4ccc5[nH]c(-c6ccccc6)nc5c4)o3)cc2)cc(OC)c1OC [Compound 7e, 2-{5-[2-Phenyl-1 H-benzo[d]imidazol-5-yl]-1,3,4-oxadiazol-2-ylthio}-N-{4-[(E)-3-(3,4,5-trimethoxyphenyl)acryloyl]phenyl}acetamide] | 15.6 | 6.64 | 14.5 | 10 | 9.02 | 7.53 | 0 | 6.4 | 27.9 | 17.5 | 0 | 1.05 | 69.3 | 44 | 0 | 0 | 5.09 | 2.76 | 0 | 24.6 | activity at 10 µM (LOX IMVI; LOX IMVI (Melanoma), 10 µM one dose, read-out: Growth Percent): 56%; inhibition at 10 µM (SK-MEL-2): 0%; inhibition at 10 µM (UO-31): 10.6%; inhibition at 10 µM (HL-60(TB)): 31%; inhibition at 10 µM (HT29): 0%; inhibition at 10 µM (MCF7): 56.1%; inhibition at 10 µM (BT-549): 18.4%; inhibition at 10 µM (MDA-MB-435): 5.93%; inhibition at 10 µM (SF-268): 2.34%; inhibition at 10 µM (CAKI-1): 0%; inhibition at 10 µM (OVCAR-8): 2.93%; inhibition at 10 µM (SW-620): 1.21%; inhibition at 10 µM (SR): 63.2% |
